Measurements: patent US20240026301A1, “METHODS AND COMPOSITIONS FOR GENERATING ENDOTHELIAL CELLS FROM PLURIPOTENT STEM CELLS” (Trailhead Biosystems Inc., priority 2022, published 2024)
Entries after “also recorded” stand apart in the source; their conditions may differ.

What was measured:
[1] = system: pluripotent stem cells; conditions: DMEM base media with ascorbic acid; GSK-inhibitor treatment; cited from earlier work
[2] = system: PECAM1 (CD31); test: 8-factor HD-DoE experiments (qPCR, partial least squares models) optimized for maximum expression of PECAM1 (CD31), stage 2 differentiation; format: cell-based, human
Experimental: First, undifferentiated iPSC were grown for 48 h in CDM2 media containing 6 uM CHIR99021 (referred to herein as stage 1). Then stage 2 media was engineered. The basis of this was an 8-factor HD-DoE experiment with focus on differentiation of cells toward the endothelial lineage for an additional 3 days after termination of stage 1 treatment. To test the effectors, 48 different combinations of effectors generated using Design-of-Experiments compression through D-optimality were robotically prepared. The effector combinations were prepared in a basal media and were subsequently added to the cells, which were then allowed to differentiate. Three days later, RNA extraction was performed, and gene expression was obtained using quantitative PCR analysis. The data were normalized and modeled using partial least squares regression analysis to the effector design, resulting in the generation of gene-specific models, which after model tuning for maximal Q2 predictive power, provided explanation of the effectors ability to control the expression of individual genes, combinatorically, and individually. Solutions within the tested space could then be explored to address desirability. Optimizing for maximal expression of CD31 led to a robust solution. […] On this model, we observed high levels of KDR, important receptor for VEGF signaling.
This model was derived from initial testing of eight factors including: VEGF, FGF2, TTNBP, AGN194310, Y27632, Thymosin B4 and Heparin.
Next, we evaluated further factors to possibly increase the complexity of the signaling inputs to attain effective fate control. As previously, we focused on expression of CD31. Optimizing for maximal expression of the CD31 led to a robust solution. […] This model was derived from initial testing of eight factors including: YHHU-3792, DBZ, Pumorphamine, SANT1, LPA, YODA1, VEGF and B27. […] DBZ and LPA had low contributions factors and therefore were not used in the recipe.
To further improve the recipe for endothelial cell differentiation, we performed additional HD-DoE experiments. This model was derived from initial testing of eight factors including: VEGF, FGF2, Sphingosine 1 phosphate, VH298, Pyrintegrin, Erythropoetin, L-ascorbic acid and XAV939. […] On this model, we observed high levels of KDR, important receptor for VEGF signaling. […] Considering all the models analyzed, based on predicted conditions that maximize expression of endothelial enriched genes such as ERG, CDH5, CD31, FLI1, CD34, a complex recipe for endothelial differentiation was developed that is composed of 6 effectors, as shown below in Table 2: […]

[3] = system: CD31; test: Factor criticality analysis (dynamic profile analysis), CD31 expression level; format: cell-based, human; parameters: values of CD31, effector removed / CD31 levels, effector removed / CD31 levels before addition of the SHH agonist / CD31 levels after addition of the SHH agonist: unit not given here; conditions: for values of CD31, effector present / values of CD31, effector removed: FIG. 6 model; for values of CD31, effector present: all factors present
[4] = system: CDH5; test: Factor criticality analysis (dynamic profile analysis), CDH5 expression level; format: cell-based, human
[5] = system: PECAM1, CD34, CDH5 and FLI1; test: Dynamic profile analysis of expression levels relative to effector concentration (figure legends); format: cell-based, human; conditions: for impact on expression of PECAM1, CD34, CDH5 and FLI1: FIG. 5A-5B, slope of plots relative to effector concentration
Description: FIG. 5A-5B show the dynamic profile analysis of expression levels of PECAM1, CD34, CDH5 and FLI1 relative to the concentration of 3 validated effectors.
FIG. 6A-6B show the dynamic profile analysis of expression levels of PECAM1, CD34, CDH5 and Fli1 relative to the concentration of 3 validated effectors.
(§1) To assess the impact of elimination of each validated factor on genes associated with the endothelial lineage, dynamic profile analysis was used and the expression levels of genes of interest were compared in the absence of each finalized factor while others are kept present.

[6] = system: CD31; test: Factor criticality analysis (dynamic profile analysis), CD31 expression level; format: cell-based, human; parameters: values of CD31, effector removed: unit not given here; conditions: FIG. 5 model; for values of CD31, effector present: all finalized factors present; for values of CD31, effector removed: named effector removed, other factors kept
Experimental: (§2) First, undifferentiated iPSC were grown for 48 h in CDM2 media containing 6 uM CHIR99021 (referred to herein as stage 1). Then stage 2 media was engineered. The basis of this was an 8-factor HD-DoE experiment with focus on differentiation of cells toward the endothelial lineage for an additional 3 days after termination of stage 1 treatment. To test the effectors, 48 different combinations of effectors generated using Design-of-Experiments compression through D-optimality were robotically prepared. The effector combinations were prepared in a basal media and were subsequently added to the cells, which were then allowed to differentiate. Three days later, RNA extraction was performed, and gene expression was obtained using quantitative PCR analysis. The data were normalized and modeled using partial least squares regression analysis to the effector design, resulting in the generation of gene-specific models, which after model tuning for maximal Q2 predictive power, provided explanation of the effectors ability to control the expression of individual genes, combinatorically, and individually. Solutions within the tested space could then be explored to address desirability.
as §1
(§3) In this analysis, removal of a finalized effector while keeping other factors was used to analyze the impact of factors on the expression levels of CD31, CD34, FLi1 and CDH5 (FIG. 5A).

[7] = system: CD34; test: Factor criticality analysis (dynamic profile analysis), CD34 expression level; format: cell-based, human; conditions: for values of CD34, effector present / values of CD34, effector removed: FIG. 5 model; for values of CD34, effector present: all finalized factors present; for values of CD34, effector removed / CD34 levels, effector removed: named effector removed; for values of CD34, effector removed: other factors kept
Experimental: as §2, §1, §3

[8] = system: CDH5; test: Factor criticality analysis (dynamic profile analysis), CDH5 expression level; format: cell-based, human; conditions: FIG. 5 model; for values of CDH5, effector present: all finalized factors present; for values of CDH5, effector removed: named effector removed, other factors kept
Experimental: as §2, §1, §3

[9] = system: FLI1; test: Factor criticality analysis (dynamic profile analysis), FLI1 expression level; format: cell-based, human; conditions: for values of FLI1, effector present: all finalized factors present; for values of Fli1, effector present / values of Fli1, effector removed: FIG. 6 model; for values of Fli1, effector present: all factors present
Experimental: as §2, §1, §3

[10] = model of FIG. 3, factors YHHU-3792, DBZ, Pumorphamine, SANT1, LPA, YODA1, VEGF, B27
[11] = FIG. 7 model, L-ascorbic acid kept in the model
[12] = FIG. 7 model, named effector removed, L-ascorbic acid kept
[13] = model of FIG. 2, factors VEGF, FGF2, TTNBP, AGN194310, Y27632, Thymosin B4, Heparin, 3 days after stage 1
[14] = model of FIG. 4, factors VEGF, FGF2, Sphingosine 1 phosphate, VH298, Pyrintegrin, Erythropoetin, L-ascorbic acid, XAV939
[15] = FIG. 6 model, all factors present

Row | Compound | factor contribution (positive impact on expression of genes of interest) [2, 10] | values of CD31, effector present [6] | values of CD31, effector removed [6] | factor contribution (positive impact on expression of genes of interest) [2, 13] | values of CD34, effector present [7] | values of CD34, effector removed [7] | impact on expression of PECAM1, CD34, CDH5 and FLI1 [5] | values of CDH5, effector present [8] | values of CDH5, effector removed [8] | values of FLI1, effector present ([9]; FIG. 5 model) | factor contribution (positive impact on expression of genes of interest) [2, 14] | further results
1 | Cc1c[nH]c(-c2cnc(NCCNc3ccc(C#N)cn3)nc2-c2ccc(Cl)cc2Cl)n1 [CHIR99012] |  |  |  |  |  |  |  |  |  |  |  | yield of CD34+CD31+ cells prior to sorting [1]: 20-30%
2 | C[C@H](NC(=O)Cc1cc(F)cc(F)c1)C(=O)N[C@@H]1C(=O)N(C)c2ccccc2-c2ccccc21 [DBZ] | low |  |  |  |  |  |  |  |  |  |  | 
3 | c1ccc2c(Oc3nc(Nc4ccc(N5CCOCC5)cc4)c4ncn(C5CCCCC5)c4n3)cccc2c1 [Pumorphamine] |  |  |  |  |  |  |  |  |  |  |  | CD31 levels after addition of the SHH agonist ([3]; FIG. 7 model, agent added): 400; CD31 levels before addition of the SHH agonist ([3]; FIG. 7 model, without the added agent): 800
4 | Cc1nn(-c2ccccc2)c(C)c1/C=N/N1CCN(Cc2ccccc2)CC1 [SANT1] | 16 |  |  |  |  |  |  |  |  |  |  | CDH5 levels, effector present [4, 11]: 2928; CDH5 levels, effector removed [4, 12]: 2340; CD31 levels, effector present [3, 11]: 808; CD31 levels, effector removed [3, 12]: 563; impact on PECAM1 and CDH5 expression ([5]; FIG. 7A-7B model): positive impact
5 | C/C(=C\c1ccc(C(=O)O)cc1)c1ccc2c(c1)C(C)(C)CCC2(C)C [TTNBP] |  | 2000 | 1077 | 21 | 6500 | 4300 | positive impact | 10000 | 2600 | 2883 |  | 
6 | Oc1nc(-c2ccc(C(F)(F)F)cc2)nc2c1CSCC2 [XAV939] |  |  |  |  |  |  |  |  |  |  | 15 | values of CD31, effector present [3]: 6500; values of CD31, effector removed ([3]; named effector removed): 2225; CD34 levels, effector present [7, 15]: 7180; CD34 levels, effector removed ([7]; FIG. 6 model): 5836; impact on PECAM1 and Fli1 expression ([5]; FIG. 6A-6B model): positive impact; values of Fli1, effector present [9]: 13400; values of Fli1, effector removed ([9]; named effector removed): 7300
7 | FGF2: FGFR agonist, e.g. recombinant human FGF2 |  |  |  | did not significantly impact the expression of CD31 |  |  |  |  |  |  | 16 | values of CDH5, effector present [4, 15]: 19000; values of CDH5, effector removed ([4]; FIG. 6 model, named effector removed): 5000; values of CD31, effector present [3]: 6500; values of CD31, effector removed ([3]; named effector removed): 1990; CD34 levels, effector removed ([7]; FIG. 6 model): did not change significantly; impact on PECAM1, FLI1, and CDH5 expression ([5]; FIG. 6A-6B model): positive impact; values of Fli1, effector present [9]: 1300; values of Fli1, effector removed ([9]; named effector removed): 500
8 | VEGF | 32 | 2000 | 340 | 39 | 6500 | 1000 | positive impact | 10000 | 0 | 4900 | 42 | impact on expression of all genes (PECAM1, CD34, CDH5 and Fli1) ([5]; FIG. 6A-6B model): positive impact; also recorded: critical; impact on expression of all genes (PECAM1, CD34, CDH5 and Fli1) ([5]; FIG. 7A-7B model): positive impact; values of FLI1, effector removed ([9]; FIG. 5 model, named effector removed, other factors kept): 1035
9 | heparin |  | 2000 | 1500 | 11 | 6500 | 4800 | positive impact | 10000 | 5800 | 2883 |  | 
